Data taken from patent US5138069A (E. I. Du Pont de Nemours and Company, priority 1988, dated 1992).
Where a name gives a salt, the structure may show the parent alone. Read-outs that look alike come from different tables or passages of the source.

Assays:
[1] = target: AII receptor; assay: Angiotensin II receptor binding (displacement of 3H-AII); details: read-out: Angiotensin II Receptor Binding IC50, Table 25, rat adrenal cortical microsomes, 2 nM 3H-AII, 1 hour, room temperature
In short: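 The receptor source was rat adrenal cortical microsomes in Tris buffer, incubated with 2 nM ³H-AII plus or minus test compound for 1 h at room temperature. Bound and free ligand were separated by rapid filtration on glass-fibre filters. Filter-bound ³H-AII was counted by scintillation.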

[2] = test system: Renal Hypertensive Rats; assay: Antihypertensive effects in renal hypertensive rats; type: in vivo; details: Rattus norvegicus, Table 25; for minimal effective dose at 10 mg/kg: intravenous, 10 mg/kg or less; for minimal effective dose at 100 mg/kg: oral, 100 mg/kg or less
In short: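 Renal hypertensive rats (renin-driven AII elevation) dosed orally at 100 mg/kg and/or i.v. via jugular cannula at 10 mg/kg; a second set used 30 mg/kg oral and 3 mg/kg i.v. Arterial pressure recorded continuously via carotid cannula and compared with pretreatment levels.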

SMILES	IC50 ([1]; tested as sodium salt) [µM]	minimal effective dose at 10 mg/kg ([2]; tested as sodium salt) [mg/kg]	minimal effective dose at 100 mg/kg ([2]; tested as sodium salt) [mg/kg]	IC50 [1] [µM]	minimal effective dose at 10 mg/kg [2] [mg/kg]	minimal effective dose at 100 mg/kg [2] [mg/kg]
CCCCc1nc(Cl)c(CNC(=O)Oc2ccccc2)n1Cc1ccc(-c2ccccc2C(=O)O)cc1 [Example 149]	0.45	< 10	< 100	–	–	–
CCCCc1nc(Cl)c(CNC(=O)OC)n1Cc1ccc(-c2ccccc2C(=O)O)cc1 [Example 150]	0.2	< 10	< 100	–	–	–
CCCCc1nc(Cl)c(CNC(=O)OCCC)n1Cc1ccc(-c2ccccc2C(=O)O)cc1 [Example 151]	0.56	< 10	< 100	–	–	–
CCCCc1nc(Cl)c(CNC(=O)OC(C)C)n1Cc1ccc(-c2ccccc2C(=O)O)cc1 [Example 152]	0.25	< 10	< 100	–	–	–
CCCCOC(=O)NCc1c(Cl)nc(CCCC)n1Cc1ccc(-c2ccccc2C(=O)O)cc1 [Example 153]	0.2	< 10	< 100	–	–	–
CCCCc1nc(Cl)c(CNC(=O)OC23CC4CC(CC(C4)C2)C3)n1Cc1ccc(-c2ccccc2C(=O)O)cc1 [Example 154]	0.6	< 10	< 100	–	–	–
CCCCc1nc(Cl)c(CNC(=O)OC)n1Cc1ccc(-c2ccccc2-c2nnn[nH]2)cc1 [Example 156]	–	–	–	0.06	< 10	–
CCCCc1nc(CNC(=O)OC)c(Cl)n1Cc1ccc(-c2ccccc2C(=O)O)cc1 [Example 160]	0.12	< 10	< 100	–	–	–
CCCCc1nc(CNC(=O)OCCC)c(Cl)n1Cc1ccc(-c2ccccc2C(=O)O)cc1 [Example 162]	0.14	< 10	< 100	–	–	–
CCCCc1nc(Cl)c(CNC(=O)Nc2cccc3ccccc23)n1Cc1ccc(-c2ccccc2C(=O)O)cc1 [Example 165, 2-n-Butyl-1-[(2'-carboxybiphenyl-4-yl)methyl]-4-chloro-5-(1-naphthylaminocarbonylaminomethyl)-imidazole]	3	< 10	> 100	–	–	–
CCCCc1nc(Cl)c(CNC(=O)NC)n1Cc1ccc(-c2ccccc2C(=O)O)cc1 [Example 166]	0.24	< 10	> 100	–	–	–
CCCCc1nc(Cl)c(CNC(=O)NC(C)c2cccc3ccccc23)n1Cc1ccc(-c2ccccc2C(=O)O)cc1 (stereo not shown) [Example 171]	0.6	< 10	> 100	–	–	–
CCCCc1nc(Cl)c(COC)n1Cc1ccc(-c2ccccc2Cc2nn[nH]n2)cc1 [Example 174, 2-n-Butyl-4-chloro-5-methoxymethyl-1-[(2'-((tetrazol-5-yl)methyl)biphenyl-4-yl)methyl]imidazole]	0.3	< 10	> 100	–	–	–
CCCCc1nc(Cl)c(CO)n1Cc1ccc(-c2ccccc2CC(=O)O)cc1 [Example 175, 2-n-Butyl-1-[(2'-(carboxymethyl)biphenyl-4-yl)methyl]-4-chloro-5-(hydroxymethyl)-imidazole.dicyclohexylamine salt]	1.5	< 10	> 100	–	–	–
CCCCc1nc(Cl)c(COC)n1Cc1ccc(-c2ccccc2C(=O)NNS(=O)(=O)C(F)(F)F)cc1 [Example 176, 2-n-Butyl-4-chloro-5-methoxymethyl-1-[4-(2-(trifluoromethylsulfonylhydrazido)biphenyl-4-yl)methyl]imidazole]	–	–	–	0.2	< 10	> 100
CCCCc1nc(Cl)c(CO)n1Cc1ccc(-c2ccccc2-c2c[nH]nn2)cc1 [Example 177]	–	–	–	9.6	< 10	> 100
CCCCc1nc(Cl)c(CO)n1Cc1ccc(-c2ccccc2C(=O)NOCc2ccccc2)cc1 [Example 181]	–	–	–	4.9	< 10	> 100
CCCCc1nc(Cl)c(CO)n1Cc1ccc(-c2ccccc2C(=O)NO)cc1 [Example 182]	–	–	–	4.1	< 10	> 100
CCCCc1nc(Cl)c(CC(=O)O)n1Cc1ccc(OCc2ccccc2C(=O)O)cc1 [Example 192, 1-[4-(2-Carboxybenzyloxy)benzyl]-2-butyl-4-chloroimidazole-5-acetic acid]	–	–	–	2.3	–	> 100
CCCCc1nc(Cl)c(Cn2cncn2)n1Cc1ccc(C(=O)c2ccccc2C(=O)O)cc1 [Example 204, 2-Butyl-1-[4-(2-Carboxybenzoyl)benzyl]-4-chloro-5-((1,2,4-triazol-1-yl)methyl)imidazole]	1.9	< 10	> 100	–	–	–
